The values below come from US20210369699A1, “TREATMENT OF LUPUS ERYTHEMATOSUS USING S-HYDROXYCHLOROQUINE” (Genovate Biotechnology Co. Ltd., priority 2020, published 2021).

SMILES strings stand for the structures. Where two headings read alike, the source gives them in different places.

The target of data set [1] is T1, human ether-a-go-go-related gene (hERG) voltage-gated potassium channel (Homo sapiens, UniProt Q12809). The data set is described as follows: In vitro cardiotoxicity assay: hERG patch-clamp in HEK-293 cells.
Description: (§3) A conventional patch-clamp technique was used to determine inhibitory effects on hERG. Human embryonic kidney cells (HEK-293) stably transfected with human hERG cDNA were plated on collagen-coated 35-mm cell culture dishes at low density for 1-7 days. For single-cell patch-clamp recording, the intracellular solution contained 130 mM KCl, 10 mM NaCl, 1 mM MgCl2, 10 mM EGTA, 5 mM MgATP, and 10 mM HEPES (pH adjusted to 7.2 with KOH). The extracellular solution contained acellular Solution (mM): 137 mM NaCl, 4 mM KCl, 1.8 mM CaCl2, 1 mM MgCl2, 10 mM D(+)-Glucose, and 10 mM HEPES (pH adjusted to 7.4 with NaOH). All measurements were performed at room temperature.
(§4) After cell capture, a pulse protocol was implemented that involved stepping from a holding potential of −80 mV to +40 mV for 4 s to inactivate hERG channels. The membrane voltage was then stepped back to −50 mV for 4 s to evoke a tail current prior to returning to the holding potential. This sequence was repeated with an inter-pulse interval of 20 s. […] Evoked peak tail current amplitudes were continuously monitored throughout the experiment. Each compound was applied from low to high concentrations sequentially to the same cell for five minutes.
(§5) The percent inhibition of hERG channel was calculated by comparing the tail current amplitude before and after application of the compound, the current difference being normalized to control. The amplitude of the hERG peak tail current was calculated by measuring the tail current on stepping to −50 mV. The current was measured before and after each compound addition. […] Percent inhibition values were used to calculate the IC50 for each tested compound.
A short description of data set [2]: Body weight of treated MRL/lpr mice.
Description: Pharmacodynamics of HCQ, S-HCQ, and R-HCQ was examined in MRL/lpr mice, a model for human cutaneous lupus erythematosus. […] Eight-week old MRL/lpr mice, were purchased from Jackson Laboratory (ME, USA) and maintained on a 12 h light and dark cycle with constant temperature and humidity control. Animals were given water and food ad-libitum.
Groups of 14-15 mice were treated starting at the age of −15 weeks old with vehicle (10% EtOH in PBS), with low dose (20 mg/kg) or high dose (40 mg/kg) HCQ, S-HCQ, or R-HCQ. Mice in the vehicle and low dose groups were treated orally once daily for 16 weeks from age 15 to 31 weeks. Mice in the high dose groups were treated orally once daily for 14 weeks from age 15 to 29 weeks. Dosing volumes were kept consistent at 10 mL/kg.
MRL/lpr mice treated with vehicle or with 20 mg/kg HCQ, S-HCQ, or R-HCQ were weighed once per week from day 0 (initial day of dosing) to day 111. Animals in the 40 mg/kg groups were weighed daily from day 0 to day 90.
The subject of data set [3] is MRL/lpr mice. Description: Blood urea nitrogen and creatinine concentration in plasma of MRL/lpr mice. It is filed as in vivo. The settings on record: end of study; for creatinine concentration in plasma: FIG. 4B. The protocol:
(§1) See Furukawa et al., 1996, J. Invest. Dermatol. 107; 95-100; Furukawa et al., 2009, Autoimmun. Rev. 8:495-499; and Shimomatsu et al., 2016, Mod. Rheumatol. 26:744-748. […] Animals were given water and food ad-libitum.
(§2) Dosing volumes were kept consistent at 10 mL/kg.
Plasma was prepared from blood samples collected at the end of the study. They were analyzed for blood urea nitrogen (BUN) level and creatinine concentration using a FUJI DRI-CHEM 4000i instrument as directed by the manufacturer. Elevated BUN and creatinine levels indicate compromised kidney function.

For data set [4], the system named is IL-17 production in human peripheral blood mononuclear cells (PBMC). Description: IL-17 production in PMA/ionomycin-stimulated PBMC (ELISA). Format: cell-based. The conditions noted are these: for IL-17 pg/mL (mean ± SD): n = 3; for inhibition at 25 µM / inhibition at 50 µM / inhibition at 100 µM / inhibition at 5 µM: PBMC; for inhibition at 25 µM / inhibition at 50 µM / inhibition at 100 µM / (%) inhibition / inhibition at 5 µM: IL-17 synthesis. The procedure:
Hydroxychloroquine (HCQ) and its pure optical isomers S-hydroxychloroquine (S-HCQ; enantiomeric excess of 99.0%) and R-hydroxychloroquine (R-HCQ; enantiomeric excess of 98.3%) were tested in an in vitro pharmacodynamic assay to determine their efficacy at inhibiting interleukin 17 (IL-17) production in human peripheral blood mononuclear cells (PBMC) stimulated with phorbol myristate acetate (PMA) and ionomycin.
Cells were cultured at 37° C. with 5% CO2 in RPMI-1640 medium (Gibco, 11875-093) supplemented with 10% Fetal Bovine Serum (Gibco, 10437-028), 10 mM HEPES (Gibco, 15630-080), and 100 U/mL Penicillin/Streptomycin (Gibco, 15140-122).
PBMC were seeded at a density of 10^6 cells/ml in each well of a 96-well round bottom microplate (Corning, 7007) then stimulated with 25 ng/ml PMA and 1 μg/ml ionomycin in the absence and presence of 25 μM, 50 μM, or 100 μM HCQ, S-HCQ or R-HCQ each dissolved in ethanol. The final concentration of ethanol in the culture medium was 0.75%. PBMC treated with 5 μM methylprednisolone served as a positive control.
After incubation for 48 or 72 hours, the cell culture supernatants were collected and stored at −80° C. until analysis. The levels of IL-17 induced by PMA/ionomycin-stimulated PBMC were analyzed using human IL-17 Quantikine ELISA Kit (R & D system, D1700) according to product information.

Data set [5] deals with T1, human ether-a-go-go-related gene (hERG) voltage-gated potassium channel.
Description: as §3, §4, §5
Data set [6] concerns MRL/lpr mice. Description: Survival of treated MRL/lpr mice. The conditions noted are these: observed 70-80 days. It is filed as in vivo. The procedure:
as §1, §2
The number of live and dead mice was recorded each day beginning from the first dosing day at age 15 weeks.

Data set [7] has as its system MRL/lpr mice. The data set is described as follows: Skin lesions in treated MRL/lpr mice. Format: in vivo. The settings on record: for mean score of skin lesions versus time (onset of skin inflammation and lesions): HCQ and R-HCQ, FIG. 3A. The protocol: as §1, §2
Inflammation and skin lesions in the MRL/lpr mice were scored twice per week from the regions of dorsal neck, forehead, snout, and ears using a previously described scoring scale. See Keil et al., 2016, Arthritis Res. Ther. 18:243. Briefly, animals with no skin lesions were scored as 0, those having minimal hair loss with redness and a few scattered lesions were scored as 1, and those with redness, scabbing, and hair loss with a small area of involvement were scored as 2.
The mean score of skin lesions in each group from Day 68 to Day 111 for vehicle and low dose groups and from Day 68 to Day 90 for high dose groups after first dosing were plotted and are shown in FIG. 3A.
The data was reanalyzed by comparing the average skin lesion scores for each treatment over the entire test period. The skin lesion scores from day 68 to day 111 after initial dosing were averaged for the vehicle and the low dose groups and compared, as shown in FIG. 3B. The skin lesion scores from day 68 to day 90 after initial dosing were averaged for the vehicle and the high dose groups and compared, as shown in FIG. 3C.

Where [8] appears, read: 25 μM, 48 h, PMA/ionomycin-stimulated PBMC.
Where [9] appears, read: 25 μM, 72 h, PMA/ionomycin-stimulated PBMC.
Where [10] appears, read: 50 μM, 48 h, PMA/ionomycin-stimulated PBMC.
The mark [11] stands for this setting: 50 μM, 72 h, PMA/ionomycin-stimulated PBMC.
The mark [12] stands for this setting: 100 μM, 48 h, PMA/ionomycin-stimulated PBMC.
Where [13] appears, read: 100 μM, 72 h, PMA/ionomycin-stimulated PBMC.

T1 sequence (Q12809 whole entry): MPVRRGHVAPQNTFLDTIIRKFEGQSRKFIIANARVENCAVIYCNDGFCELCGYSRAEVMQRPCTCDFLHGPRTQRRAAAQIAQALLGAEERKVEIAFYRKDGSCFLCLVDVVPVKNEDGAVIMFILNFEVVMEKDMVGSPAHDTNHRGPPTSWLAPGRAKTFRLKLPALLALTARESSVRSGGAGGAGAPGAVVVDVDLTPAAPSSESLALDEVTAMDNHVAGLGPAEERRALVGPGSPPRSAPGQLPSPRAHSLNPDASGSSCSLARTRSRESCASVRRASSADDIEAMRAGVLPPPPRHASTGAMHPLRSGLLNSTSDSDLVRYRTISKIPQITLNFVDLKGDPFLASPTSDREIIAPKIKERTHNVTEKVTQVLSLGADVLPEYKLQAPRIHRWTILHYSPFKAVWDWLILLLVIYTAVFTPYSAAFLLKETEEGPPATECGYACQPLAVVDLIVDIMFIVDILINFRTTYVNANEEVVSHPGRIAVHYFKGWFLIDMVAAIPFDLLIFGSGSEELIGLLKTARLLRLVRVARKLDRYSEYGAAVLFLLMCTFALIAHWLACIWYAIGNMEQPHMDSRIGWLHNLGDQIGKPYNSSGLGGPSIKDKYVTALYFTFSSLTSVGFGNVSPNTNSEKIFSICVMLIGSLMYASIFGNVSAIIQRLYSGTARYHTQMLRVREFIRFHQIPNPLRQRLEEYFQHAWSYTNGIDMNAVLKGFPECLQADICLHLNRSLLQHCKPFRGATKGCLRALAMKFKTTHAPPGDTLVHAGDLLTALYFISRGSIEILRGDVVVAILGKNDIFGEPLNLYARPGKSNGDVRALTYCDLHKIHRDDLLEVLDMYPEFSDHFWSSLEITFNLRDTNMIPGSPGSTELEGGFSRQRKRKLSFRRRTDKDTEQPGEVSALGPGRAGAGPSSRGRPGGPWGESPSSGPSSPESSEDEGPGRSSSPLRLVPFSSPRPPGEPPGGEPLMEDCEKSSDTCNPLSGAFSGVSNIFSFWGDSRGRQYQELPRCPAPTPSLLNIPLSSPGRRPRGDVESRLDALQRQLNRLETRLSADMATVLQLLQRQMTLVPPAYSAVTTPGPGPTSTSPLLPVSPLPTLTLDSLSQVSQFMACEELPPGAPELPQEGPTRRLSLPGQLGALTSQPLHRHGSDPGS

For the compound `CCN(CCO)CCCC(C)Nc1ccnc2cc(Cl)ccc12` (racemic) [HCQ, Hydroxychloroquine], the IC50 in data set [1] was 4.84 µM; in data set [4] (Homo sapiens, PMA/ionomycin-stimulated PBMC, 48 h or 72 h, read-out: absolute IC50 of IL-17 inhibition), 50 to 100 µM. Also, the “mean body weight vs vehicle” value is given as “No obvious difference in mean body weight” in data set [2] (20 mg/kg orally once daily, day 0 to day 111, FIG. 1A) and “No obvious difference in mean body weight” in data set [2] (40 mg/kg orally once daily, day 0 to day 90, FIG. 1B). Also, the “creatinine concentration in plasma” value in data set [3] (20 mg/kg orally once daily) is recorded as “lower”. The “IL-17 pg/mL (mean ± SD)” value in data set [4] (setting [8]) came out at 480.4 ± 13.1 pg/mL; in data set [4] (setting [9]), 502.4 ± 20.7 pg/mL; in data set [4] (setting [10]), 344.8 ± 12.2 pg/mL; in data set [4] (setting [11]), 341.1 ± 47.4 pg/mL; in data set [4] (setting [12]), 214.5 ± 15.3 pg/mL; in data set [4] (setting [13]), 203.0 ± 10.8 pg/mL. Also, the inhibition at 25 µM in data set [4] (Homo sapiens, 25 μM, 48 h) was found to be 3%; in data set [4] (Homo sapiens, 25 μM, 72 h), 23%. The inhibition at 50 µM in data set [4] (Homo sapiens, 50 μM, 48 h) came out at 30%; in data set [4] (Homo sapiens, 50 μM, 72 h), 48%. Also, the inhibition at 100 µM in data set [4] (Homo sapiens, 100 μM, 48 h) is 57%; in data set [4] (Homo sapiens, 100 μM, 72 h) it was 69%.

With `CCN(CCO)CCCC(C)Nc1ccnc2cc(Cl)ccc12` (stereo not drawn) [R-HCQ, R-hydroxychloroquine], the “creatinine concentration in plasma” value in data set [3] (20 mg/kg orally once daily) and in data set [3] (40 mg/kg orally once daily) was “lower” each time. In addition, the IC50 in data set [5] was 4.2 µM. The “(%) inhibition” value in data set [4] (25 μM, 48 h) is 5%; in data set [4] (25 μM, 72 h), 13%; in data set [4] (50 μM, 48 h), 42%; in data set [4] (50 μM, 72 h), 50%; in data set [4] (100 μM, 48 h), 69%; in data set [4] (100 μM, 72 h) it was 72%. Further, the “IL-17 pg/mL (mean ± SD)” value is reported as 471.6 ± 32.9 pg/mL in data set [4] (setting [8]); 564.0 ± 72.9 pg/mL in data set [4] (setting [9]); 289.4 ± 34.7 pg/mL in data set [4] (setting [10]); 326.8 ± 33.6 pg/mL in data set [4] (setting [11]); 154.0 ± 18.1 pg/mL in data set [4] (setting [12]); 179.2 ± 31.8 pg/mL in data set [4] (setting [13]).

Take `CCN(CCO)CCC[C@H](C)Nc1ccnc2cc(Cl)ccc12` [S-HCQ, S-hydroxychloroquine]: the “creatinine concentration in plasma” value in data set [3] (40 mg/kg orally once daily) was “most significant decrease in creatinine concentration”. Also, in data set [3] (40 mg/kg orally once daily, compared to any other treatments, FIG. 4A), the “blood urea nitrogen (BUN) level in plasma” value is on record as “significantly lower”. Moreover, in data set [5], the IC50 was determined as 11 µM. Further, the “fractional survival compared to vehicle, HCQ and R-HCQ” value in data set [6] (20 mg/kg orally once daily, FIG. 2A) is on record as “higher fractional survival”; in data set [6] (40 mg/kg orally once daily, FIG. 2B), “higher fractional survival”. The “(%) inhibition” value in data set [4] (25 μM, 48 h) is recorded as 13%; in data set [4] (25 μM, 72 h) it was 25%; in data set [4] (50 μM, 48 h) it was 41%; in data set [4] (50 μM, 72 h), 45%; in data set [4] (100 μM, 48 h), 57%; in data set [4] (100 μM, 72 h), 62%. The “IL-17 pg/mL (mean ± SD)” value in data set [4] (setting [8]) was 432.6 ± 28.9 pg/mL; in data set [4] (setting [9]) it was 486.5 ± 8.9 pg/mL; in data set [4] (setting [10]), 292.0 ± 21.6 pg/mL; in data set [4] (setting [11]), 354.6 ± 52.5 pg/mL; in data set [4] (setting [12]), 215.0 ± 24.6 pg/mL; in data set [4] (setting [13]) it was 248.9 ± 38.9 pg/mL. Besides, the “average skin lesion score over the test period vs vehicle” value in data set [7] (20 mg/kg (low dose), day 68 to day 111, t-test p<0.005, FIG. 3B) is “significantly reduced skin lesion scores”; in data set [7] (40 mg/kg (high dose), day 68 to day 90, t-test p<0.005, FIG. 3C), “significantly reduced skin lesion scores”. Besides, the “mean score of skin lesions versus time (onset of skin inflammation and lesions)” value in data set [7] (20 mg/kg orally once daily, Day 68 to Day 111, compared to vehicle) was “superior in reducing the onset of skin inflammation and lesions”; in data set [7] (40 mg/kg orally once daily, Day 68 to Day 90, compared to vehicle), “superior in reducing the onset of skin inflammation and lesions”.

Turning to `C[C@H]1C[C@@H]2[C@H]([C@@H](O)C[C@@]3(C)[C@H]2CC[C@]3(O)C(=O)CO)[C@@]2(C)C=CC(=O)C=C12` [methylprednisolone], the “IL-17 pg/mL (mean ± SD)” value in data set [4] (5 μM, 48 h, PMA/ionomycin-stimulated PBMC) came out at 266.7 ± 15.3 pg/mL; in data set [4] (5 μM, 72 h, PMA/ionomycin-stimulated PBMC), 282.0 ± 37.6 pg/mL. Further, the inhibition at 5 µM in data set [4] (Homo sapiens, 5 μM, 48 h) was 46%; in data set [4] (Homo sapiens, 5 μM, 72 h), 57%.

In general, IC50 refers to the concentration at which inhibition is half-maximal. For orientation: inhibition means the share of the control response that was lost under treatment. High values mean strong suppression, low ones little suppression.
